These results are taken from US10647680B2, “Urea compound, preparation method therefor and medical use thereof” (Ancureall Pharmaceutical (Shanghai) Co., Ltd., priority 2016, dated 2020).

Type in all cases: cell-based
Assay [1] deals with KG-1 (expressing FGFR1OP2-FGFR1 fusion protein). Description: In vitro growth inhibition (GI50), KG-1. Conditions: Homo sapiens; Cell lines of leukemia; read-out: GI 50 KG-1 FGFR1OP 2-FGFR1.
The next assay relates to HCC1954 (HER2/ErbB2 amp). Description: In vitro growth inhibition (GI50), HCC1954. The note with it: Homo sapiens. An excerpt: (§1) Tumor cell line is an effective cell model for studying the inhibition of tumor cell growth or proliferation in vitro. In the present invention, a representative tumor cell line was selected to determine the cell growth inhibition activity of the present compound. All cell lines used were from ATCC, DSMZ, and the Cell Bank of the Chinese Academy of Sciences. Cell culture conditions and methods were in accordance with the requirements of each cell line. Cells were subcultured in vitro for no more than 3 passages each time, and as required, single-clone purification and identification of cell lines could be carried out.
(§2) The cell culture media used were RPMI1640 (Gibco), MEM (Gibco), McCOY'S5A (Gibco), and IMDM (Gibco). The complete medium was prepared by supplement with 5˜20% fetal calf serum (Gibco), 1% double-antibiotics (10000 units/mL penicillin and 10000 units/mL), 2 mM glutamine or 1 mM sodium pyruvate, respectively.
(§3) Human gastric cancer cell line NCI-N87 (HER2/ErbB2 amp, ATCC), human breast cancer cell line HCC1954 (HER2/ErbB2 amp, ATCC) and ZR-75-30 (HER2/ErbB2 amp, ATCC), human adenocarcinoma cell line AU565 (HER2/ErbB2 amp, ATCC), human lung squamous cell carcinoma cell line NCI-H2170 (HER2/ErbB2 amp, ATCC), human bronchioalveolar adenocarcinoma cell line NCI-H1781 (HER2/ErbB2 Ins G776V,C mutant type, ATCC) were cultured with a 1×RPMI1640 complete medium (10% FBS), respectively. Human lung adenocarcinoma cell line Calu-3 (HER2/ErbB2 amp, ATCC) was cultured with 1×MEM, 10% FBS, 1% double antibody, 1% NEAA (Gibco), 2 mM glutamine and 1 mM sodium pyruvate. The human breast cancer cell line SK-BR-3 (HER2/ErbB2 amp, ATCC) was cultured with a McCOY'S5A complete medium (10% FBS).
(§4) Adherent cells were digested with 0.25% pancreatin-EDTA (Gibco). The suspension cells were collected by centrifugation. The supernatant was discarded and the cell pellet was resuspended and counted. Different cell concentrations (5˜10×10^4 cells/mL) were prepared according to the growth cycle of each cell line and then seeded on a 96-well plate (Corning), 100 μL/well. The cells were incubated overnight at 37° C., 5% CO2. The compounds were added to the cells on the second day with 2 wells in parallel. The final concentration of organic solvent shall not exceed 1%. The cells were continually incubated for 3 to 5 days, and then subjected to MTT assay.
(§5) The compound of the present invention and the control compound were dissolved in DMSO (Sigma) respectively, with the purity of more than 98%. The compound was stored in a concentration of 10 mM at −20° C. and diluted to 2- or 10-fold series prior to use.
(§6) Dojindo CCK8 reagent kit was used as MTT assay. THERMO […] FC meter was used as microplate reader.
(§7) For adherent cells, culture medium was removed and immediately replaced with the fresh prepared medium which contains 10% CCK8 reagent (100 μL/well). For the suspension cells, CCK8 was directly added to 10% of the final concentration. The cells were continually incubated for 1˜4 h. When a dark yellow color could be observed in the solvent control wells, the absorbance value at OD450 nm was measured and the cell growth rate was calculated according to the following formula: Cell Growth Rate (%)=100*(T−T0)/(C−T0) T=optical density of drug treatment cell well—optical density of blank control well; T0=optical density of cell well before drug treatment—optical density of blank control well; C=optical density of cell well of solvent control group—optical density of blank control well. The concentration value of 50% inhibition of cell growth (GI50) was calculated according to the drug concentration and cell growth rate curve. The experiment was independently repeated 1˜3 times, and subject to biological statistical analysis. 4. Experimental Results
(§8) Tumor cell growth inhibition test was performed by selecting representative compounds (compounds 4, 11, 12, 16, 27, 68, 71, 77, 79, 89 and 116 of the present invention). […]

The next assay concerns SK-BR-3 (HER2/ErbB2 amp). The experiment in a line: In vitro growth inhibition (GI50), SK-BR-3. The note with it: Homo sapiens, SK-BR3, HER2/ErbB2 amp+.
Text: as §1, §2, §3, §4, §5, §6, §7, §8

Take `CC(C)(C)c1cc(NC(=O)Nc2ccc(-n3cnc4cc(O)ccc43)cc2)no1` [Compound 4, 1-(5-tert-butyl-isoxazol-3-yl)-3-[4-(5-hydroxy-benzimidazol-1-yl)-phenyl]-urea]: the GI50 in assay [1] is 100 to 1000 nM; with HCC1954 (HER2/ErbB2 amp), greater than 2500 nM; with SK-BR-3 (HER2/ErbB2 amp), greater than 2500 nM.

For `CC(C)(C)c1cc(NC(=O)Nc2ccc(-n3cnc4cc(OCCO)ccc43)cc2)no1` [Compound 11, 1-(5-tert-butyl-isoxazol-3-yl)-3-{4-[5-(2-hydroxy-ethoxyl)-benzimidazol-1-yl]-phenyl]-urea], the GI50 in assay [1] is greater than 1000 nM; in the assay on HCC1954 (HER2/ErbB2 amp), greater than 2500 nM; with SK-BR-3 (HER2/ErbB2 amp) it was greater than 2500 nM.

Turning to `CC(C)(C)c1cc(NC(=O)Nc2ccc(-n3cnc4cc(OCCN5CCOCC5)ccc43)cc2)no1` [Compound 16, 1-(5-tert-butyl-isoxazol-3-yl)-3-{4-[5-(2-morpholin-4-yl-ethoxyl)-benzimidazol-1-yl]-phenyl}-urea], the GI50 is greater than 1000 nM in assay [1], greater than 2500 nM in the assay on HCC1954 (HER2/ErbB2 amp) and greater than 2500 nM with SK-BR-3 (HER2/ErbB2 amp).

For the compound `CC(C)(C)c1cc(NC(=O)Nc2ccc(-n3cnc4ccc(OCCN5CCOCC5)cc43)cc2)no1` [Compound 27, 1-(5-tert-butyl-isoxazol-3-yl)-3-{4-[6-(2morpholin-4-yl-ethoxyl)-benzimidazol-1-yl]-phenyl}-urea], the GI50 was 100 to 1000 nM in assay [1], greater than 2500 nM with HCC1954 (HER2/ErbB2 amp) and greater than 2500 nM in the assay with SK-BR-3 (HER2/ErbB2 amp).

Turning to `CC(C)(C)c1cc(NC(=O)Nc2ccc(-n3cnc4ccccc43)cc2)[nH]n1` [Compound 68, 1-(4-benzimidazol-1-yl-phenyl)-3-(5-tert-butyl-2H-pyrazol-3-yl)-urea], the values for the GI50 (in assay [1]; in the assay on HCC1954 (HER2/ErbB2 amp); with SK-BR-3 (HER2/ErbB2 amp)) were greater than 1000 nM, greater than 2500 nM and greater than 2500 nM, respectively.

Regarding `COc1ccc2c(c1)ncn2-c1ccc(NC(=O)Nc2cc(C(C)(C)C)n[nH]2)cc1` [Compound 71, 1-(5-tert-butyl-2H-pyrazol-3-yl)-3-[4-(5-methoxyl-benzimidazol-1-yl)-phenyl]-urea], the GI50 in assay [1] is greater than 1000 nM; with HCC1954 (HER2/ErbB2 amp), greater than 2500 nM; in the assay on SK-BR-3 (HER2/ErbB2 amp), greater than 2500 nM.

With `COCCOc1ccc2c(c1)ncn2-c1ccc(NC(=O)Nc2cc(C(C)(C)C)n[nH]2)cc1` [Compound 77, 1-(5-tert-butyl-2H-pyrazol-3-yl)-3-{4-[5-(2-methoxyl-ethoxyl)-benzimidazol-1-yl]-phenyl}-urea], the GI50 in assay [1] is greater than 1000 nM; in the assay with HCC1954 (HER2/ErbB2 amp), greater than 2500 nM; with SK-BR-3 (HER2/ErbB2 amp), greater than 2500 nM.

Consider `CC(C)(C)c1cc(NC(=O)Nc2ccc(-n3cnc4cc(OCCO)ccc43)cc2)[nH]n1` [Compound 79, 1-(5-tert-butyl-2H-pyrazol-3-yl)-3-{4-[5-(2-hydroxy-ethoxyl)-benzimidazol-1-yl]-phenyl]urea], for which the GI50 in assay [1] was greater than 1000 nM; with HCC1954 (HER2/ErbB2 amp), greater than 2500 nM; in the assay with SK-BR-3 (HER2/ErbB2 amp), greater than 2500 nM.

`CC(C)(C)c1cc(NC(=O)Nc2ccc(-n3cnc4cc(OCCN5CCOCC5)ccc43)cc2)[nH]n1` [Compound 89, 1-(5-tert-butyl-2H-pyrazol-3-yl)-3-{4-[5-(2-morpholin-4-yl-ethoxyl)-benzimidazol-1-yl]-phenyl}-urea]: the GI50 in assay [1] was greater than 1000 nM; in the assay on HCC1954 (HER2/ErbB2 amp) it was greater than 2500 nM; in the assay with SK-BR-3 (HER2/ErbB2 amp), greater than 2500 nM.

Take `CC(C)(C)c1cc(N)n(C(=O)Nc2ccc(-n3cnc4ccccc43)cc2)n1` [Compound 116, 5-amino-3-tert-butyl-pyrazol-1-carboxylic acid (4-benzimidazol-1-yl-phenyl)-amide]: the GI50 is greater than 1000 nM in assay [1], greater than 2500 nM with HCC1954 (HER2/ErbB2 amp) and greater than 2500 nM with SK-BR-3 (HER2/ErbB2 amp).
